From US9073855B2, “BCL-2 selective apoptosis-inducing agents for the treatment of cancer and immune diseases” (AbbVie Inc., priority 2008, dated 2015)

Legend:
FL5.12/Bcl-2 cells = test: FL5.12/Bcl-2 cell viability assay under IL-3 withdrawal (CellTitre Glo); type: cell-based, murine; conditions: Mus musculus, IL-3 withdrawn 48 hrs, then 24 hrs with compound
Procedure, shortened: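 IL-3 withdrawal 48 hrs (no WEHI-3B medium), then compound 24 hrs, various concentrations; 37° C, 5% CO2; readout CellTitre Glo. Murine prolymphocytic FL5.12 stably overexpressing Bcl-2.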

GST-Bcl-2 = GST-Bcl-2 (Homo sapiens, UniProt P10415); test: TR-FRET binding assay, GST-Bcl-2 with F-Bak peptide probe; conditions: for Ki: TR-FRET Binding Affinity, GST-Bcl-2, F-Bak peptide probe
Procedure, shortened: (§1)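 Compounds were serially diluted in DMSO from a 50 μM starting solution (2× the starting concentration; 10% DMSO). Plates were incubated for 3 h at room temperature, and TR-FRET was read with 340/35 nm excitation and emission at 520/525 nm (F-Bak) and 495/510 nm (Tb antibody). Ki values were calculated using Wang's competitive-binding equation.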

GST-Bcl-XL = GST-Bcl-XL (Homo sapiens, UniProt Q07817); test: TR-FRET binding assay, GST-Bcl-XL with F-Bak peptide probe; conditions: TR-FRET Binding Affinity, GST-Bcl-XL, F-Bak peptide probe
Procedure, shortened: as §1

GST-Bcl-2, sequence (P10415 whole entry): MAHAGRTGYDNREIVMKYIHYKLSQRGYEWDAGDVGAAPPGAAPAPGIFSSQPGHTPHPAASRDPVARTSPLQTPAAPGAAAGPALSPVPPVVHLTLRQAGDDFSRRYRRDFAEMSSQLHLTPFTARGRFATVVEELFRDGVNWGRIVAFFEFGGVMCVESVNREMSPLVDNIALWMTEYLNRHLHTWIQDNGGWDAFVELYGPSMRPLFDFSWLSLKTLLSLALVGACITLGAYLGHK
GST-Bcl-XL, sequence (Q07817 whole entry): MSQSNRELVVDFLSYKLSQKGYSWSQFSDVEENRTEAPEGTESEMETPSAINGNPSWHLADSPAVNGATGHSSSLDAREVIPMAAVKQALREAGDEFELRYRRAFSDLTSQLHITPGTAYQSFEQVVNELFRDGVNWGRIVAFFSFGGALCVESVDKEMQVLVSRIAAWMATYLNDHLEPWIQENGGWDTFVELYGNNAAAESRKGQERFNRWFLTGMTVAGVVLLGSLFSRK

Row | Structure (SMILES) | EC50 (FL5.12/Bcl-2 cells) [nM] | Ki (GST-Bcl-2) [nM] | Ki (GST-Bcl-XL) [nM] | Binding selectivity ratio (Bcl-XL Ki/Bcl-2 Ki) (GST-Bcl-2; ratio of TR-FRET Ki values, Bcl-XL over Bcl-2)
1 | CC1(C)CCC(CN2CCN(c3ccc(C(=O)NS(=O)(=O)c4ccc(CCC5OCCO5)c([N+](=O)[O-])c4)c(Oc4ccc5[nH]ccc5c4)c3)CC2)=C(c2ccc(Cl)cc2)C1 [Example 278, 4-(4-{[2-(4-chlorophenyl)-4,4-dimethylcyclohex-1-en-1-yl]methyl}piperazin-1-yl)-N-({4-[2-(1,3-dioxolan-2-yl)ethyl]-3-nitrophenyl}sulfonyl)-2-(1H-indol-5-yloxy)benzamide] | 153 | 0.71 | > 660 | 
2 | O=C(NS(=O)(=O)c1ccc(NCC2CCOCC2)c([N+](=O)[O-])c1)c1ccc(N2CCN(CC3=C(c4ccc(Cl)cc4)CCN(CCCO)C3)CC2)cc1Oc1cccc2[nH]ccc12 [Example 355, 4-(4-{[4-(4-chlorophenyl)-1-(3-hydroxypropyl)-1,2,5,6-tetrahydropyridin-3-yl]methyl}piperazin-1-yl)-2-(1H-indol-4-yloxy)-N-({3-nitro-4-[(tetrahydro-2H-pyran-4-ylmethyl)amino]phenyl}sulfonyl)benzamide] | > 500 | 0.12 | > 660 | 
3 | CC1(C)CCC(CN2CCN(c3ccc(C(=O)NS(=O)(=O)c4ccc(NCC(F)(F)F)c([N+](=O)[O-])c4)c(Oc4ccc5[nH]ccc5c4)c3)CC2)=C(c2ccc(Cl)cc2)C1 [Example 344, 4-(4-{[2-(4-chlorophenyl)-4,4-dimethylcyclohex-1-en-1-yl]methyl}piperazin-1-yl)-2-(1H-indol-5-yloxy)-N-({3-nitro-4-[(2,2,2-trifluoroethyl)amino]phenyl}sulfonyl)benzamide] | 71.5 | 0.284 | 447 | 
4 | COc1ccc(Nc2ccc(S(=O)(=O)NC(=O)c3ccc(N4CCN(CC5=C(c6ccc(Cl)cc6)CC(C)(C)CC5)CC4)cc3Oc3ccc4[nH]ccc4c3)cc2[N+](=O)[O-])cc1 [Example 372, 4-(4-{[2-(4-chlorophenyl)-4,4-dimethylcyclohex-1-en-1-yl]methyl}piperazin-1-yl)-2-(1H-indol-5-yloxy)-N-({4-[(4-methoxyphenyl)amino]-3-nitrophenyl}sulfonyl)benzamide] | > 500 | > 1200 | > 660 | 
5 | CC1(C)CCC(CN2CCN(c3ccc(C(=O)NS(=O)(=O)c4ccc(NCCCN5CCNC(=O)C5)c([N+](=O)[O-])c4)c(Oc4ccc5[nH]ccc5c4)c3)CC2)=C(c2ccc(Cl)cc2)C1 [Example 222, 4-(4-{[2-(4-chlorophenyl)-4,4-dimethylcyclohex-1-en-1-yl]methyl}piperazin-1-yl)-2-(1H-indol-5-yloxy)-N-[(3-nitro-4-{[3-(3-oxopiperazin-1-yl)propyl]amino}phenyl)sulfonyl]benzamide] | 23.7 | 0.107 | 137 | 
6 | CC1(C)CCC(CN2CCN(c3ccc(C(=O)NS(=O)(=O)c4ccc(N[C@@H]5CCN(CC(F)F)C5)c([N+](=O)[O-])c4)c(Oc4cccc5[nH]cnc45)c3)CC2)=C(c2ccc(Cl)cc2)C1 [Example 407, 2-(1H-benzimidazol-4-yloxy)-4-(4-{[2-(4-chlorophenyl)-4,4-dimethylcyclohex-1-en-1-yl]methyl}piperazin-1-yl)-N-[(4-{[(3R)-1-(2,2-difluoroethyl)pyrrolidin-3-yl]amino}-3-nitrophenyl)sulfonyl]benzamide] | 8.1 | 0.015 | 74.6 | 4930.6
7 | CC1(C)CCC(CN2CCN(c3ccc(C(=O)NS(=O)(=O)c4ccc(N5CCOCC5)c([N+](=O)[O-])c4)c(Oc4ccc5[nH]ccc5c4)c3)CC2)=C(c2ccc(Cl)cc2)C1 [Example 270, 4-(4-{[2-(4-chlorophenyl)-4,4-dimethylcyclohex-1-en-1-yl]methyl}piperazin-1-yl)-2-(1H-indol-5-yloxy)-N-[(4-morpholin-4-yl-3-nitrophenyl)sulfonyl]benzamide] | 429 | 3.31 | > 660 | 
8 | CN1CC(Nc2ccc(S(=O)(=O)NC(=O)c3ccc(N4CCN(CC5=C(c6ccc(Cl)cc6)CC(C)(C)CC5)CC4)cc3Oc3ccc4[nH]ccc4c3)cc2[N+](=O)[O-])CC1=O (stereo not shown) [Example 281, 4-(4-{[2-(4-chlorophenyl)-4,4-dimethylcyclohex-1-en-1-yl]methyl}piperazin-1-yl)-2-(1H-indol-5-yloxy)-N-({4-[(1-methyl-5-oxopyrrolidin-3-yl)amino]-3-nitrophenyl}sulfonyl)benzamide] | 60.2 | 0.076 | 119 | 
9 | CC1(C)CCC(CN2CCN(c3ccc(C(=O)NS(=O)(=O)c4ccc(OCC5(F)CCOCC5)c([N+](=O)[O-])c4)c(Oc4cccc5[nH]ccc45)c3)CC2)=C(c2ccc(Cl)cc2)C1 [Example 306, 4-(4-{[2-(4-chlorophenyl)-4,4-dimethylcyclohex-1-en-1-yl]methyl}piperazin-1-yl)-N-({4-[(4-fluorotetrahydro-2H-pyran-4-yl)methoxy]-3-nitrophenyl}sulfonyl)-2-(1H-indol-4-yloxy)benzamide] | 7.16 | 0.077 | 47.9 | 
10 | CC1(C)CCC(CN2CCN(c3ccc(C(=O)NS(=O)(=O)c4ccc(NCC5CCCCC5)c([N+](=O)[O-])c4)c(Oc4ccc5[nH]ccc5c4)c3)CC2)=C(c2ccc(Cl)cc2)C1 [Example 259, 4-(4-{[2-(4-chlorophenyl)-4,4-dimethylcyclohex-1-en-1-yl]methyl}piperazin-1-yl)-N-({4-[(cyclohexylmethyl)amino]-3-nitrophenyl}sulfonyl)-2-(1H-indol-5-yloxy)benzamide] | > 500 | 1.99 | > 660 | 
11 | CC1(C)CCC(CN2CCN(c3ccc(C(=O)NS(=O)(=O)c4ccc(NCC5CCS(=O)(=O)C5)c([N+](=O)[O-])c4)c(Oc4cccc5[nH]ccc45)c3)CC2)=C(c2ccc(Cl)cc2)C1 (stereo not shown) [Example 326, 4-(4-{[2-(4-chlorophenyl)-4,4-dimethylcyclohex-1-en-1-yl]methyl}piperazin-1-yl)-N-[(4-{[(1,1-dioxidotetrahydrothien-3-yl)methyl]amino}-3-nitrophenyl)sulfonyl]-2-(1H-indol-4-yloxy)benzamide] | 35.1 | 0.116 | > 660 | 
12 | CC1(C)CCC(CN2CCN(c3ccc(C(=O)NS(=O)(=O)c4ccc(NC5CCN(S(C)(=O)=O)CC5)c([N+](=O)[O-])c4)c(Oc4ccc5[nH]ccc5c4)c3)CC2)=C(c2ccc(Cl)cc2)C1 [Example 335, 4-(4-{[2-(4-chlorophenyl)-4,4-dimethylcyclohex-1-en-1-yl]methyl}piperazin-1-yl)-2-(1H-indol-5-yloxy)-N-[(4-{[1-(methylsulfonyl)piperidin-4-yl]amino}-3-nitrophenyl)sulfonyl]benzamide] | 39 | 0.438 | > 660 | 
13 | CC1(C)CCC(CN2CCN(c3ccc(C(=O)NS(=O)(=O)c4ccc(NCC5CCOCC5)c([N+](=O)[O-])c4)c(Oc4cccc5[nH]ccc45)c3)CC2)=C(c2ccc(Cl)cc2)C1 [Example 244, 4-(4-{[2-(4-chlorophenyl)-4,4-dimethylcyclohex-1-en-1-yl]methyl}piperazin-1-yl)-2-(1H-indol-4-yloxy)-N-({3-nitro-4-[(tetrahydro-2H-pyran-4-ylmethyl)amino]phenyl}sulfonyl)benzamide] | 20.2 | 0.16 | > 660 | 
14 | CC1(C)CCC(CN2CCN(c3ccc(C(=O)NS(=O)(=O)c4cnc(NCC5CCOCC5)c(Br)c4)c(Oc4cccc5[nH]ccc45)c3)CC2)=C(c2ccc(Cl)cc2)C1 [Example 325, N-({5-bromo-6-[(tetrahydro-2H-pyran-4-ylmethyl)amino]pyridin-3-yl}sulfonyl)-4-(4-{[2-(4-chlorophenyl)-4,4-dimethylcyclohex-1-en-1-yl]methyl}piperazin-1-yl)-2-(1H-indol-4-yloxy)benzamide] | 256 | 2.33 | > 660 | 
15 | CC1(C)CCC(CN2CCN(c3ccc(C(=O)NS(=O)(=O)c4ccc(NCCCn5ccnc5)c([N+](=O)[O-])c4)c(Oc4ccc5[nH]ccc5c4)c3)CC2)=C(c2ccc(Cl)cc2)C1 [Example 377, 4-(4-{[2-(4-chlorophenyl)-4,4-dimethylcyclohex-1-en-1-yl]methyl}piperazin-1-yl)-N-[(4-{[3-(1H-imidazol-1-yl)propyl]amino}-3-nitrophenyl)sulfonyl]-2-(1H-indol-5-yloxy)benzamide] | 85.7 | 0.14 | 325 | 
16 | CC1(C)CCC(CN2CCN(c3ccc(C(=O)NS(=O)(=O)c4cnc(OCC5(F)CCOCC5)c(C(F)(F)F)c4)c(Oc4cccc5[nH]ncc45)c3)CC2)=C(c2ccc(Cl)cc2)C1 [Example 410, 4-(4-{[2-(4-chlorophenyl)-4,4-dimethylcyclohex-1-en-1-yl]methyl}piperazin-1-yl)-N-{[6-[(4-fluorotetrahydro-2H-pyran-4-yl)methoxy]-5-(trifluoromethyl)pyridin-3-yl]sulfonyl}-2-(1H-indazol-4-yloxy)benzamide] | 13.9 | 0.055 | 102 | 
17 | CC1(C)CCC(CN2CCN(c3ccc(C(=O)NS(=O)(=O)c4ccc(NCC(F)F)c([N+](=O)[O-])c4)c(Oc4ccc5[nH]ccc5c4)c3)CC2)=C(c2ccc(Cl)cc2)C1 [Example 302, 4-(4-{[2-(4-chlorophenyl)-4,4-dimethylcyclohex-1-en-1-yl]methyl}piperazin-1-yl)-N-({4-[(2,2-difluoroethyl)amino]-3-nitrophenyl}sulfonyl)-2-(1H-indol-5-yloxy)benzamide] | 32.4 | 0.504 | > 660 | 
